Assays:
[1] = test system: RFL cells; test: Apoptosis induction, Caspase-3/7 activity (IncuCyte S3 live cell analysis); type: cell-based, rat; conditions: 0.06 μg/mL, scanned every hour for 3 days, untreated control did not increase
Description: (§1) In this Example, the apoptosis ability of peptide 16 was examined using the […] and RM4 cells. An activity of Caspase-3/7 which are indications of apoptosis, was measured using IncuCyte S3 live cell analysis system (Essen BioScience).
(§2) The activity of Caspase-3/7 activity is measured using an inert non-fluorescent (DEVD) substrate that can penetrate the cell membrane. An activated Caspase-3/7 cleaves the substrate, and thereby a DNA-bound green fluorescent label is released. The activity of Caspase-3/7 is measured by the intensity of green fluorescence.
(§3) RFL cells or RM4 cells were seeded on 96-well plates and 0.06 μg/mL of peptide 16 was added thereto. Caspase-3/7 Green Reagent (Unit size: 20 ul, 5 mM/vial) was diluted 500-fold with Ham's F-12K and added thereto.
(§4) They were measured using the IncuCyte S3 live cell analysis system, by continuously scanning every hour for 3 days with an objective lens of magnification of 10 times and 4 fields of view. As a control, RFL cells or RM-4 cells which were not treated with peptide 16, were used.

[2] = test system: RM4 cells; test: as above; type: cell-based; conditions: 0.06 μg/mL, scanned every hour for 3 days, untreated control did not increase
Description: as §1, §2, §3, §4

[3] = test system: HVJ virus (Sendai virus); test: Virus envelope fusion, electron micrograph
Description: In this example, peptide 16 was applied to the HVJ virus (Sendai virus), and its ability to fuse with the virus was examined.

[4] = test system: A549 cells (human alveolar epithelial adenocarcinoma cells); test: In vivo anticancer effect on A549 tumor transplanted in nude mice; parameters: species or system mouse; conditions: A549 subcutaneous, 18.75 mg/kg or 37.5 mg/kg intravenously two times/week during 5 weeks, autopsy 35 days after implantation
Description: In this example, the anticancer effect of peptide 16 on A549 cells (human alveolar epithelial adenocarcinoma cells) was examined in vivo.
CAnN.Cg-Foxn1nu/CrlCrlj nude mice were divided into groups of 6 animals each. A549 cells were suspended in PBS at a concentration of 1×10^8 cells/mL and 0.1 mL thereof were transplanted subcutaneously to the right ventral part thereof. The peptide 16 was administered intravenously from the tail vein at a dose of 18.75 mg/kg or 37.5 mg/kg (peptide 16 group-1, or peptide 16 group-2) on two times/week during 5 weeks after tumor transplantation. Control group was administered PBS only.
Autopsy was performed 35 days after tumor implantation, and the tumor was removed. FIGS. 13A (×100) and B (×400) are the photographs of tumor masses of A549 cells treated with peptide 16, and FIGS. 13C (×100) and D (×400) are the controls.

## CH3-Pro-Ile-Val-Ser-Thr-Gln-Thr-Ala-Leu-Ala-miniPEG-D-Lys-D-Lys-D-Lys-NH2 [peptide 16]
[1]
  activity of Caspase-3/7: the activity increased rapidly between 10 and 20 hours
[2]
  activity of Caspase-3/7: the activity increased rapidly between 10 and 20 hours
[3]
  fusion of the virus envelope: Fusion of the envelope of the HVJ virus was observed
[4]
  antitumor effect, HE-stained excised tumor: the inside of the tumor is necrotic

Source: patent US20250129122A1, “PEPTIDE, AND CELL FUSION AGENT AND PHARMACEUTICAL COMPOSITION FOR CANCER THERAPY CONTAINING SAID PEPTIDE” (priority 2021, published 2025)
